Marks after values point to notes of the source that are not given here.
Columns and labels:
Type in all cases: in vivo
[1] = test system: Erysiphe graminis f. sp. tritici; assay: Test A: wheat powdery mildew, test suspension sprayed on wheat seedlings, disease rating; conditions: for pest or weed control at 200 ppm: Blumeria graminis, 192 h
[2] = test system: Puccinia recondite f sp. tritici; assay: Test B: wheat leaf rust, test suspension sprayed on wheat seedlings, disease rating;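 also: 200 ppm unless marked * meaning 40 ppm or ** meaning 10 ppm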
[3] = test system: Fusarium graminearum; assay: whole plant or invertebrate
[4] = test system: Septoria nodorum; assay: Test D: wheat glume blotch, test suspension sprayed on wheat seedlings, disease rating; conditions: for pest or weed control at 200 ppm: Parastagonospora nodorum, 216 h
[5] = test system: Septoria tritici; assay: Test E: wheat leaf blotch, test suspension sprayed on wheat seedlings, disease rating; conditions: 200 ppm test suspension; for pest or weed control at 200 ppm: Zymoseptoria tritici, 504 h;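 as to all read-outs here: 200 ppm unless marked * meaning 40 ppm or ** meaning 10 ppm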
[6] = test system: Phytophthora infestans; assay: whole plant or invertebrate; conditions: for pest or weed control at 200 ppm: Phytophthora infestans, in Solanum lycopersicum, 120 h, read-out: Test J disease control rating
[7] = test system: Pythium aphanidermatum; assay: Test L: bluegrass pythium blight, test suspension sprayed on bluegrass seedlings, disease rating; conditions: for pest or weed control at 200 ppm: Pythium aphanidermatum, 120 h;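 as to all read-outs here: 200 ppm unless marked * meaning 40 ppm or ** meaning 10 ppm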
[8] = 200 ppm test suspension, 100 = 100% disease control, 0 = no control

SMILES	Test A disease control rating [1, 8] [%]	Test D disease control rating ([4]; 200 ppm test suspension) [%]	Test E disease control rating [5] [%]	Test J disease control rating ([6]; 200 ppm test suspension) [%]	Test L disease control rating ([7]; 200 ppm test suspension) [%]	Test A disease control rating ([1]; 40 ppm test suspension (*))	Test B disease control rating ([2]; 40 ppm test suspension (*))	Test C disease control rating ([3]; 40 ppm test suspension (*))	Test D disease control rating ([4]; 40 ppm test suspension (*))	Test J disease control rating ([6]; 40 ppm test suspension (*))	Test L disease control rating ([7]; 40 ppm test suspension (*))	also measured
CC(C)Nc1nccc(-c2c(-c3cccc(F)c3)nn3c2CCC3)n1 [compound 102]	73	97	100	96	99							Test B disease control rating ([2]; 200 ppm test suspension): 92%; Test C disease control rating ([3]; 200 ppm test suspension): 100%
Fc1ccc(-c2nn3c(c2-c2ccnc(N4CCC4)n2)CCCC3)cc1 [compound 82]	81	60	97	99	0							Test B disease control rating ([2]; 200 ppm test suspension): 91%; Test C disease control rating ([3]; 200 ppm test suspension): 96%
Fc1cccc(-c2nn3c(c2-c2ccnc(NC4CC4)n2)CCC3)c1 [compound 103]	85	99	100	99	100							Test B disease control rating ([2]; 200 ppm test suspension): 95%; Test C disease control rating ([3]; 200 ppm test suspension): 99%
OCCCNc1nccc(-c2c(-c3ccc(F)cc3)nn3c2CCCC3)n1 [compound 37]	70	0	68	95	93							Test B disease control rating ([2]; 200 ppm test suspension): 86%; Test C disease control rating ([3]; 200 ppm test suspension): 96%
Cc1cc(-c2nn3c(c2-c2ccnc(NC(C)CO)n2)CCCC3)ccc1F (stereo not drawn) [compound 32]						0* %	74* %	0* %	0* %	98* %	99* %	
C[C@H](CO)Nc1nccc(-c2c(-c3ccc(F)cc3)nn3c2CCCC3)n1 [compound 57]						0* %	86* %	0* %	0* %	99* %	100* %	
C#CCNc1nccc(-c2c(-c3ccccc3)nn3c2CCCC3)n1 [compound 59]						0* %	92* %	99* %	94* %	71* %		Test L disease control rating ([7]; 10 ppm test suspension (**)): 67** %
C[Si](C)(C)CNc1nccc(-c2c(-c3ccccc3)nn3c2CCCC3)n1 [compound 55]						0* %	91* %	99* %	44* %	17* %	0* %	
Fc1ccc(-c2nn3c(c2-c2ccnc(NC4CC4)n2)COCC3)cc1 [Compound 109, N-cyclopropyl-4-[2-(4-fluorophenyl)-6,7-dihydro-4H-pyrazolo[5,1-c][1,4]oxazin-3-yl]-2-pyrimidinamine]												pest or weed control at 200 ppm [1, 8]: 92%; pest or weed control at 200 ppm ([3]; Fusarium graminearum, in Triticum aestivum, 192 h, read-out: Test C disease control rating): 100%; pest or weed control at 200 ppm ([4]; 200 ppm test suspension): 0%; pest or weed control at 200 ppm [5]: 100%; pest or weed control at 200 ppm [6]: 99%; pest or weed control at 200 ppm ([7]; 200 ppm test suspension): 100%
Clc1ccc(-c2nn3c(c2-c2ccnc(NC4CC4)n2)CCCC3)cc1 [compound 22]	50	87	94	83	77							
COCC(C)Nc1nccc(-c2c(-c3ccc(F)c(C)c3)nn3c2CCCC3)n1 (stereo not drawn) [compound 62]						78* %	80* %	98* %	60* %	96* %	99* %	
Fc1ccc(-c2nn3c(c2-c2ccnc(NC4CC4)n2)CCCC3)c(F)c1 [compound 28]	94	92	96	95	98							
OCCNc1nccc(-c2c(-c3ccc(F)cc3)nn3c2CCCC3)n1 [compound 25]	96	87	97	83	100							
Cc1cc(-c2nn3c(c2-c2ccnc(NC(C)C)n2)CCCC3)ccc1F [compound 33]						0* %	77* %	98* %	94* %	95* %	97* %	
CC(C)N(O)c1nccc(-c2c(-c3ccc(F)cc3)nn3c2CS(=O)(=O)CC3)n1 [compound 115]						0* %	63* %	0* %	69* %	73* %		
Cc1cc(-c2nn3c(c2-c2ccnc(NC[Si](C)(C)C)n2)CCCC3)ccc1F [compound 50]						0* %	0* %	92* %	0* %	31* %	68* %	
CC(C)Nc1nccc(-c2c(-c3ccccc3)nn3c2CCCC3)n1 [Compound 26, N-(1-methylethyl)-4-(4,5,6,7-tetrahydro-2-phenylpyrazolo[1,5-a]pyridin-3-yl)-2-pyrimidinamine]												pest or weed control at 200 ppm [1, 8]: 91%; pest or weed control at 200 ppm ([4]; 200 ppm test suspension): 99%; pest or weed control at 200 ppm [5]: 96%; pest or weed control at 200 ppm [6]: 91%; pest or weed control at 200 ppm ([7]; 200 ppm test suspension): 100%
CC(C)Nc1nccc(-c2c(-c3ccc(Cl)cc3)nn3c2CCCC3)n1 [compound 21]	96	82	100	52	76							
C[C@@H](CO)Nc1nccc(-c2c(-c3ccccc3)nn3c2CCCC3)n1 [Compound 54, (2S)-2-[[4-(4,5,6,7-tetrahydro-2-phenylpyrazolo[1,5-c]pyridine-3-yl)-2-pyrimidinyl]amino]-1-propanol]						0* %	98* %	95* %	60* %	99* %	100* %	
C#CCNc1nccc(-c2c(-c3ccc(F)cc3)nn3c2CCCC3)n1 [compound 58]						0* %	0* %	100* %	82* %	26* %	62* %	
CN(C)Nc1nccc(-c2c(-c3ccc(F)cc3)nn3c2CCCC3)n1 [compound 23]	99	94	98	71	0							
COCC(C)Nc1nccc(-c2c(-c3ccccc3)nn3c2CCCC3)n1 (stereo not drawn) [compound 53]						0* %	98* %	99* %	84* %	99* %	100* %	
Cc1cc(-c2nn3c(c2-c2ccnc(NC4CC4)n2)CCCC3)ccc1F [compound 56]						86* %	0* %	100* %	99* %	93* %	100* %	
